Measurements taken from patent US7456167B2, “Cyclopropyl fused indolobenzazepine HCV NS5B inhibitors” (Bristol-Myers Squibb Company, priority 2006, dated 2008).
Read-outs that look alike come from different tables or passages of the source.

How the values were obtained:
[1] = target: T1, HCV NS5B RdRp genotype 1b (Hepatitis C virus genotype 1b, UniProt Q9WMX2); assay: Modified HCV NS5B RdRp enzyme assay (preincubation protocol); format: biochemical
T1 construct: The protein was expressed with an 18 amino acid C-terminal truncation to enhance the solubility; made in house; host or cells: E. coli BL21(DE3)
Experimental: HCV NS5B RdRp cloning, expression, and purification. The cDNA encoding the NS5B protein of HCV, genotype 1b, was cloned into the pET21a expression vector. The protein was expressed with an 18 amino acid C-terminal truncation to enhance the solubility. The E. coli competent cell line BL21(DE3) was used for expression of the protein. Cultures were grown at 37° C. for ˜4 hours until the cultures reached an optical density of 2.0 at 600 nm. The cultures were cooled to 20° C. and induced with 1 mM IPTG. Fresh ampicillin was added to a final concentration of 50 μg/ml and the cells were grown overnight at 20° C.
Cell pellets (3 L) were lysed for purification to yield 15-24 mgs of purified NS5B. The lysis buffer consisted of 20 mM Tris-HCl, pH 7.4, 500 mM NaCl, 0.5% triton X-100, 1 mM DTT, 1 mM EDTA, 20% glycerol, 0.5 mg/ml lysozyme, 10 mM MgCl2, 15 ug/ml deoxyribonuclease I, and Complete TM protease inhibitor tablets (Roche). After addition of the lysis buffer, frozen cell pellets were resuspended using a tissue homogenizer. To reduce the viscosity of the sample, aliquots of the lysate were sonicated on ice using a microtip attached to a Branson sonicator. The sonicated lysate was centrifuged at 100,000×g for 1 hr at 4° C. and filtered through a 0.2 μm filter unit (Corning).
The protein was purified using three sequential chromatography steps: Heparin sepharose CL-6B, polyU sepharose 4B, and Hitrap SP sepharose (Pharmacia). The chromatography buffers were identical to the lysis buffer but contained no lysozyme, deoxyribonuclease I, MgCl2 or protease inhibitor and the NaCl concentration of the buffer was adjusted according to the requirements for charging the protein onto the column. Each column was eluted with a NaCl gradient which varied in length from 5-50 column volumes depending on the column type. After the final chromatography step, the resulting purity of the enzyme is >90% based on SDS-PAGE analysis. The enzyme was aliquoted and stored at −80° C.
Standard HCV NS5B RdRp enzyme assay. HCV RdRp genotype 1b assays were run in a final volume of 60 μl in 96 well plates (Costar 3912). The assay buffer is composed of 20 mM Hepes, pH 7.5, 2.5 mM KCl, 2.5 mM MgCl2, 1 mM DTT, 1.6 U RNAse inhibitor (Promega N2515), 0.1 mg/ml BSA (Promega R3961), and 2% glycerol. All compounds were serially diluted (3-fold) in DMSO and diluted further in water such that the final concentration of DMSO in the assay was 2%. HCV RdRp genotype 1b enzyme was used at a final concentration of 28 nM. A polyA template was used at 6 nM, and a biotinylated oligo-dT12 primer was used at 180 nM final concentration. Template was obtained commercially (Amersham 27-4110). Biotinylated primer was prepared by Sigma Genosys. 3H-UTP was used at 0.6 μCi (0.29 μM total UTP). Reactions were initiated by the addition of enzyme, incubated at 30° C. for 60 min, and stopped by adding 25 μl of 50 mM EDTA containing SPA beads (4 μg/μl, Amersham RPNQ 0007). Plates were read on a Packard Top Count NXT after >1 hr incubation at room temperature.
Modified HCV NS5B RdRp enzyme assay. A modified enzyme assay was performed essentially as described for the standard enzyme assay except for the following: The biotinylated oligo dT12 primer was precaptured on streptavidin-coated SPA beads by mixing primer and beads in assay buffer and incubating at room temperature for one hour. Unbound primer was removed after centrifugation. The primer-bound beads were resuspended in 20 mM Hepes buffer, pH 7.5 and used in the assay at final concentrations of 20 nM primer and 0.67 μg/μl beads. Order of addition in the assay: enzyme (14 nM) was added to diluted compound followed by the addition of a mixture of template (0.2 nM), 3H-UTP (0.6 μCi, 0.29 μM), and primer-bound beads, to initiate the reaction; concentrations given are final. Reactions were allowed to proceed for 4 hours at 30° C.
IC50 values for compounds were determined using seven different [I]. […]

HCV replicon cells = assay: HCV replicon FRET assay; format: cell-based; settings: Hepatitis C virus
Text: FRET Assay Preparation. To perform the HCV FRET screening assay, 96-well cell culture plates were used. The FRET peptide (Anaspec, Inc.) (Taliani et al., Anal. Biochem. 1996, 240, 60-67) contains a fluorescence donor, EDANS, near one end of the peptide and an acceptor, DABCYL, near the other end. The fluorescence of the peptide is quenched by […] resonance energy transfer (RET) between the donor and the acceptor, but as the NS3 protease cleaves the peptide the products are released from RET quenching and the fluorescence of the donor becomes apparent. The assay reagent was made as follows: 5× cell Luciferase cell culture lysis reagent from Promega (#E153A) diluted to 1× with dH2O, NaCl added to 150 mM final, the FRET peptide diluted to 20 uM final from a 2 mM stock.
To prepare plates, HCV replicon cells, with or without a Renilla luciferase reporter gene, were trypsinized and placed into each well of a 96-well plate with titrated test compounds added in columns 3 through 12; columns 1 and 2 contained a control compound (HCV protease inhibitor), and the bottom row contained cells without compound. The plates were then placed in a CO2 incubator at 37° C.
Assays. Subsequent to addition of the test compounds described above (FRET Assay Preparation), at various times the plate was removed and Alamar blue solution (Trek Diagnostics, #00-100) was added per well as a measure of cellular toxicity. After reading in a Cytoflour 4000 instrument (PE Biosystems), plates were rinsed with PBS and then used for FRET assay by the addition of 30 ul of the FRET peptide assay reagent described above (FRET Assay Preparation) per well. The plate was then placed into the Cytoflour 4000 instrument which had been set to 340 excite/490 emission, automatic mode for 20 cycles and the plate read in a kinetic mode. Typically, the signal to noise using an endpoint analysis after the reads was at least three-fold. Alternatively, after Alamar blue reading, plates were rinsed with PBS, 50 ul of DMEM (high glucose) without phenol red was added and plates were then used for luciferase assay using the Promega Dual-Glo Luciferase Assay System.
Compound analysis was determined by quantification of the relative HCV replicon inhibition and the relative cytotoxicity values. To calculate cytoxicity values, the average Alamar Blue fluorescence signals from the control wells were set as 100% non-toxic. The individual signals in each of the compound test wells were then divided by the average control signal and multiplied by 100% to determine […]. To calculate the HCV replicon inhibition values, an average background value was obtained from the two wells containing the highest amount of HCV protease inhibitor at the end of the assay period. These numbers were similar to those obtained from naïve Huh-7 cells.
The background numbers were then subtracted from the average signal obtained from the control wells and this number was used as 100% activity. The individual signals in each of the compound test wells were then divided by the averaged control values after background subtraction and multiplied by 100% to determine percent activity. EC50 values for a protease inhibitor titration were calculated as the concentration which caused a 50% reduction in FRET or luciferase activity. The two numbers generated for the compound plate, percent cytoxicity and percent activity were used to determine compounds of interest for further analysis.

[2] = HCV NS5B RdRp genotype 1b, preincubation protocol, read-out: IC50
[3] = HCV replicon cells, FRET assay, read-out: EC50

T1 sequence (Q9WMX2 2420-2992): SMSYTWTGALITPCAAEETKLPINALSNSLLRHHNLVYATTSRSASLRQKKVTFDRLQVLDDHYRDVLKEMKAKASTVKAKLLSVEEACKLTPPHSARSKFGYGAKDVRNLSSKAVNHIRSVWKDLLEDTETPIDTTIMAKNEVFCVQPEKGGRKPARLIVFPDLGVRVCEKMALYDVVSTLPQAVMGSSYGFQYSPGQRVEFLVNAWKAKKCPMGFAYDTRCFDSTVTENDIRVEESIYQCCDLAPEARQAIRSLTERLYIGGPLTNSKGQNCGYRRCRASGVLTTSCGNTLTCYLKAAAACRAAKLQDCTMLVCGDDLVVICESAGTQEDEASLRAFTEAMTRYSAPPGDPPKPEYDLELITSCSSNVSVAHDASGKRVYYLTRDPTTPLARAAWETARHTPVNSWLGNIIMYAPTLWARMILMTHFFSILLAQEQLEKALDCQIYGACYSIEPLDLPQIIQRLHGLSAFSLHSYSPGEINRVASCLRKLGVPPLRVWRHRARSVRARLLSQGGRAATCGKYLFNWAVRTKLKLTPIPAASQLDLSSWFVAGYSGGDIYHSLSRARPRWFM

Row | SMILES | IC50 [1, 2] [µM] | EC50 (HCV replicon cells; [3]) [µM] | IC50 [1] [µM] | EC50 (HCV replicon cells) [µM]
1 | COc1ccc2c(c1)C1CC1(S(=O)(=O)N1CCOCC1)Cn1c-2c(C2CCCCC2)c2ccc(C(=O)NS(=O)(=O)N(C)C)cc21 (stereo not shown) | 0.02 to 1 | 0.02 to 1 | – | –
2 | COc1ccc2c(c1)C1CC1(S(=O)(=O)N(C)C)Cn1c-2c(C2CCCCC2)c2ccc(C(=O)NS(=O)(=O)N(C)C)cc21 (stereo not shown) | 0.02 to 1 | 0.02 to 1 | – | –
3 | COc1ccc2c(c1)C1CC1(S(=O)(=O)N1CCN3CCCC3C1)Cn1c-2c(C2CCCCC2)c2ccc(C(=O)NS(=O)(=O)C(C)C)cc21 (stereo not shown) | 0.02 to 1 | 0.02 to 1 | – | –
4 | COc1ccc2c(c1)C1CC1(S(=O)(=O)N1CCN(C)CC1)Cn1c-2c(C2CCCCC2)c2ccc(C(=O)NS(=O)(=O)N(C)C)cc21 (stereo not shown) | 0.02 to 1 | 0.02 to 1 | – | –
5 | COc1ccc2c(c1)C=C(S(=O)(=O)N1CCN(C)CC1)Cn1c-2c(C2CCCCC2)c2ccc(C(=O)NS(=O)(=O)N(C)C)cc21 | 0.02 to 1 | 0.02 to 1 | – | –
6 | COc1ccc2c(c1)C1CC1(S(=O)(=O)N1CC[C@@H](N(C)C)C1)Cn1c-2c(C2CCCCC2)c2ccc(C(=O)NS(=O)(=O)N3CCOCC3)cc21 (stereo partly shown) | 0.02 to 1 | 0.02 to 1 | – | –
7 | CCS(=O)(=O)C1Cc2ccccc2-c2c(C3CCCCC3)c3ccc(C(=O)O)cc3n2C1 (stereo not shown) | 0.02 to 1 | 0.02 to 1 | – | –
8 | COc1ccc2c(c1)C1CC1(S(=O)(=O)N1CCN3CCC1CC3)Cn1c-2c(C2CCCCC2)c2ccc(C(=O)NS(=O)(=O)C(C)C)cc21 (stereo not shown) | 0.02 to 1 | 0.02 to 1 | – | –
9 | COc1ccc2c(c1)C1CC1(S(=O)(=O)N1C3CC1CN(C)C3)Cn1c-2c(C2CCCCC2)c2ccc(C(=O)NS(=O)(=O)C3CC3)cc21 (stereo not shown) | 0.02 to 1 | 0.02 to 1 | – | –
10 | COc1ccc2c(c1)CC(S(=O)(=O)N1CCOCC1)Cn1c-2c(C2CCCCC2)c2ccc(C(=O)O)cc21 (stereo not shown) | 0.02 to 1 | 0.02 to 1 | – | –
11 | CN(C)S(=O)(=O)NC(=O)c1ccc2c(C3CCCCC3)c3n(c2c1)CC(S(=O)(=O)N1CCOCC1)=Cc1ccccc1-3 | 0.02 to 1 | 0.02 to 1 | – | –
12 | COc1ccc2c(c1)C1CC1(S(=O)(=O)N1CCC(O)CC1)Cn1c-2c(C2CCCCC2)c2ccc(C(=O)O)cc21 (stereo not shown) | 0.02 to 1 | 0.02 to 1 | – | –
13 | COc1ccc2c(c1)CC(S(=O)(=O)CCN1CCN(C)CC1)Cn1c-2c(C2CCCCC2)c2ccc(C(=O)NS(=O)(=O)N(C)C)cc21 (stereo not shown) | 0.02 to 1 | 0.02 to 1 | – | –
14 | COc1ccc2c(c1)C1CC1(S(=O)(=O)N1C[C@@H](C)N(C)[C@@H](C)C1)Cn1c-2c(C2CCCCC2)c2ccc(C(=O)NS(=O)(=O)N3CCCC3)cc21 (stereo partly shown) | 0.02 to 1 | 0.02 to 1 | – | –
15 | CCN1CC2CC1CN2S(=O)(=O)C12CC1c1cc(OC)ccc1-c1c(C3CCCCC3)c3ccc(C(=O)NS(=O)(=O)N4CCOCC4)cc3n1C2 (stereo not shown) | 0.02 to 1 | 0.02 to 1 | – | –
16 | COc1ccc2c(c1)C1CC1(S(=O)(=O)N1CC(O)C1)Cn1c-2c(C2CCCCC2)c2ccc(C(=O)O)cc21 (stereo not shown) | 0.02 to 1 | 0.02 to 1 | – | –
17 | COc1ccc2c(c1)C1CC1(S(=O)(=O)N1CCN3CCC1CC3)Cn1c-2c(C2CCCCC2)c2ccc(C(=O)NS(=O)(=O)N(C)C)cc21 (stereo not shown) | 0.02 to 1 | 0.02 to 1 | – | –
18 | COc1ccc2c(c1)C1CC1(S(=O)(=O)N(C)CC(=O)N1CCOCC1)Cn1c-2c(C2CCCCC2)c2ccc(C(=O)O)cc21 (stereo not shown) | 0.02 to 1 | 0.02 to 1 | – | –
19 | COC(=O)c1ccc2c(C3CCCCC3)c3n(c2c1)CC1(S(=O)(=O)O)CC1c1cc(OC)ccc1-3 (stereo not shown) | 0.07 to 1 | > 1 | – | –
20 | COc1ccc2c(c1)C1CC1(S(=O)(=O)N1CCN(S(C)(=O)=O)CC1)Cn1c-2c(C2CCCCC2)c2ccc(C(=O)O)cc21 (stereo not shown) | 0.02 to 1 | 1 to 10 | – | –
21 | COc1ccc2c(c1)C1CC1(S(=O)(=O)N1CCC[C@H]3CN(Cc4ccccc4)C[C@H]31)Cn1c-2c(C2CCCCC2)c2ccc(C(=O)NS(=O)(=O)N3CCOCC3)cc21 (stereo partly shown) | 0.02 to 1 | 0.02 to 1 | – | –
22 | COc1ccc2c(c1)C1CC1(S(=O)(=O)N1CC3C[C@H]1CN3C)Cn1c-2c(C2CCCCC2)c2ccc(C(=O)O)cc21 (stereo partly shown) | 0.02 to 1 | 0.02 to 1 | – | –
23 | COc1ccc2c(c1)C1CC1(S(=O)(=O)N1C[C@@H](C)N(C)[C@@H](C)C1)Cn1c-2c(C2CCCCC2)c2ccc(C(=O)NS(=O)(=O)N3CCOCC3)cc21 (stereo partly shown) | 0.02 to 1 | 0.02 to 1 | – | –
24 | COc1ccc2c(c1)C1CC1(S(=O)(=O)N1CCC1)Cn1c-2c(C2CCCCC2)c2ccc(C(=O)NS(=O)(=O)N3CCOCC3)cc21 (stereo not shown) | 0.02 to 1 | 0.02 to 1 | – | –
25 | COc1ccc2c(c1)CC(S(=O)(=O)N1CCOCC1)Cn1c-2c(C2CCCCC2)c2ccc(C(=O)NS(=O)(=O)N(C)C)cc21 (stereo not shown) | 0.02 to 1 | 0.02 to 1 | – | –
26 | COc1ccc2c(c1)C1CC1(S(=O)(=O)N1C3CCC1CC(C)(O)C3)Cn1c-2c(C2CCCCC2)c2ccc(C(=O)NS(=O)(=O)N3CCOCC3)cc21 (stereo not shown) | – | – | 0.02 to 1 | 0.02 to 1
27 | CCN1CC2CC1CN2S(=O)(=O)C12CC1c1cc(OC)ccc1-c1c(C3CCCCC3)c3ccc(C(=O)NS(=O)(=O)C(C)C)cc3n1C2 (stereo not shown) | 0.02 to 1 | 0.02 to 1 | – | –
28 | COc1ccc2c(c1)CC(S(=O)(=O)CCN(C)C)Cn1c-2c(C2CCCCC2)c2ccc(C(=O)NS(=O)(=O)N(C)C)cc21 (stereo not shown) | 0.02 to 1 | 0.02 to 1 | – | –
29 | COc1ccc2c(c1)C1CC1(S(=O)(=O)N(C)C)Cn1c-2c(C2CCCCC2)c2ccc(C(=O)O)cc21 (stereo not shown) | 1 to 10 | 0.02 to 1 | – | –
